Test results as given in US7378438B2, “Beta-agonist compounds comprising nitric oxide donor groups and reactive oxygen species scavenger groups and their use in the treatment of respiratory disorders” (Yissum Research Development Company of the Hebrew …, priority 2002, dated 2008).

What was measured:
tracheal rings = assay: Relaxation studies on pre-contracted tracheal rings; format: cell-based, guinea pigs; conditions: FIG. 1; tracheal rings contracted with methacholine, histamine or leukotriene D4; compared with salbutamol and compound 2a
Protocol: The assays as described here are also described in, for example, U.S. Pat. No. 4,992,474 and Jansen et al.(1992) J. Pharmacol. Exptl. TherapeuticsI 261(1):154-160.
(§1) Male Hartley guinea pigs (500-600 g) were anesthetized by intraperitoneal injection of ketamine and xylazine (50 and 10 mg/kg, respectively). The heart and lungs were excised en bloc and tracheas were removed and placed in Krebs-Henseleit buffer composed of (mM): NaCl 118, KCl 5.4, NaH2PO4 1.01, NaHCO3 25, MgSO4 0.69, […], glucose 11.1, pH 7.4. Tracheas were then dissected free from surrounding fat and connective tissue and cut into 1-2-mm thick rings. The tracheal rings were then placed in buffer and continuously gassed with 95% O2 and 5% CO2.
Tracheal rings were suspended on stainless steel hooks in 10 ml of oxygenated (95% O2, 5% CO2) Krebs-Henseleit buffer at 37° C. and connected to transducer (Experimetria Model) for recording changes in isometric force. The tracheal rings were equilibrated for 60 min under a load of 1 g and then primed twice by exposure to 100 μM methacholine. Tissues were contacted with methacholine, histamine, or leukotriene D4 at concentrations determined to approximately generate 50% of maximal tone, after which cumulative relaxation-response curves were constructed. […]

[1] = system: NO-guanylyl cyclase pathway; assay: Cyclic nucleotide (cGMP) assay in tracheal rings; format: cell-based, guinea pigs; conditions: FIG. 2
Protocol: as §1
Tracheal rings in Krebs-Heneseleit solution were exposed to a 5-100 μM of the test compound for 30-90 seconds. Reaction was terminated by the addition of ice-cold 10% trichloroacetic acid and rapidly frozen in ethanol-saturated dry ice. In the methylene blue experiment, rings were pre-exposed methylene blue, a guanylyl cyclase inhibitor, for 30 min. Tissues were then individually pulverized with a glass homogenizer and centrifuged at 8000×g for 5 min. The clear supernatant was extracted with water-saturated ether and assayed for cGMP using commercially available radioimmunoassay kits as described by the manufacturer (Amersham Biosciences, Piscataway, N.J.).

5-(2-tert-Butylamino-1-S-nitroso-ethyl)-1,1,3,3-tetramethyl-isoindolin-2-yloxyl [compound 2]
relaxation response (relax. %) versus log of concentration (tracheal rings): more effective relaxant compound than either salbutamol or the non-nitrosolated precursor of compound 2, compound 2a
cGMP response of tracheal rings ([1]; 5-100 μM test compound for 30-90 seconds, radioimmunoassay, compared with control and salbutamol): elevates the production of cGMP
cGMP response of tracheal rings in the presence of methylene blue (MB) ([1]; rings pre-exposed to methylene blue, a guanylyl cyclase inhibitor, for 30 min): reduces the efficacy of compound 2
